Experimental data: patent US10793588B2, “Crystal form of sodium-glucose cotransporter 2 inhibitor” (HAINAN XUANZHU PHARMA CO., LTD., priority 2016, dated 2020)
Blank lines part the entries; values can stand above or below the compound they belong to.

Test: Stability test of crystalline Form I and free compound (properties, relevant substances by HPLC, XRD)
Type: physicochemical
Description: The crystalline Form I of the co-crystal of the compound of Formula (1) with L-proline, which was prepared according to the methods in the examples; free compound of Formula (1).
The test samples were placed under conditions of 60° C., 40° C., RH 90%±5%, RH 75%±5%, 4500lx±500lx or UV-Vis for 10 days, […], and the samples were tested for relevant substances and XRD pattern; and the results were compared with those of a sample on the 0th day.
Determination of the relevant substances: the determination was carried out in accordance with High Performance Liquid Chromatography in Appendix V D in Pharmacopoeia of the People's Republic of China (2010) (Volume II).
XRD measurement: the measurement was carried out in accordance with X-Ray Powder Diffraction in Appendix IX F in Pharmacopoeia of the People's Republic of China (2010) (Volume II).

[1] = 0th day (baseline, listed under 60° C.)
[2] = UV-Vis, total illumination ≥1.2 × 10^6 Lux·h, near ultraviolet energy ≥200 w·h/m^2
[3] = conditions that meet the illumination requirement (UV-Vis)

Relevant substances (%) [1]: 1.35%
XRD [1]: Amorphism
Relevant substances (%) (40° C., 10th day): 1.44%
XRD (40° C., 10th day): Amorphism
Relevant substances (%) (60° C., 10th day): 1.43%
XRD (60° C., 10th day): Amorphism
XRD (RH75% ± 5%, 6th day): Amorphism
Hygroscopicity under humidity conditions (RH90% ± 5% / RH75% ± 5%, 6th day): significant hygroscopic deliquescence
XRD (RH90% ± 5%, 6th day): Amorphism
Properties [2]: Tawny powder
Relevant substances (%) [2]: 9.91%
XRD [2]: Amorphism
Increase of relevant substances relative to 0th day [3]: 8.56%
Change of amount of relevant substances (temperature conditions (60° C., 40° C.) for 10 days): increased
Structure (SMILES): OC[C@H]1O[C@@H](c2ccc(Cl)c(Cc3ccc(O[C@H]4C[C@@H]5C[C@@H]5C4)cc3)c2)[C@H](O)[C@@H](O)[C@@H]1O [free compound of Formula (1), (2S,3R,4R,5S,6R)-2-(3-(4-(((1R,3s,5S)-bicyclo[3.1.0]hexan-3-yl)oxy)benzyl)-4-chlorophenyl)-6-(hydroxymethyl)tetrahydro-2H-pyran-3,4,5-triol]
Change of property of the sample [3]: changed from an almost white powder to a tawny powder

Relevant substances (%) [1]: 0.60%
Relevant substances (%) (40° C., 5th day): 0.67%
Relevant substances (%) (40° C., 10th day): 0.65%
Relevant substances (%) (60° C., 5th day): 0.68%
Relevant substances (%) (60° C., 10th day): 0.62%
Relevant substances (%) (4500 lx ± 500 lx, 5th day): 0.66%
Relevant substances (%) (4500 lx ± 500 lx, 10th day): 0.71%
Relevant substances (%) (RH75% ± 5%, 5th day): 0.66%
Relevant substances (%) (RH75% ± 5%, 10th day): 0.64%
Relevant substances (%) (RH90% ± 5%, 5th day): 0.65%
Relevant substances (%) (RH90% ± 5%, 10th day): 0.63%
Stability compared with the free base of the compound (overall conclusion of the stability test): better stability
Change of property, relevant substances and XRD pattern (temperature, humidity or light conditions for 10 days): did not change significantly
Structure (SMILES): O=C(O)[C@@H]1CCCN1.O=C(O)[C@@H]1CCCN1.OC[C@H]1O[C@@H](c2ccc(Cl)c(Cc3ccc(O[C@H]4C[C@@H]5C[C@@H]5C4)cc3)c2)[C@H](O)[C@@H](O)[C@@H]1O [crystalline Form I]
